Test results published in patent publication US9403845B2, “Pesticidally active pyridyl- and pyrimidyl- substituted pyrazole derivatives” (Syngenta Participations AG, priority 2012, dated 2016).

Legend:
[1] = test system: Myzus persicae (Green Peach Aphid); assay: Activity against Myzus persicae (green peach aphid), mixed population, feeding/residual contact activity, preventive; assay type: in vivo; settings: foliar, 144 h, sprayed sunflower leaf discs, aphid population of mixed ages, 6 days incubation
Source text: Activity Against Myzus persicae (Green Peach Aphid)
(Mixed Population, Feeding/Residual Contact Activity, Preventive)

[2] = test system: Bemisia tabaci (Cotton White Fly); assay: Activity against Bemisia tabaci (cotton white fly), feeding/residual contact activity, preventive; assay type: in vivo; settings: foliar, 144 h, sprayed cotton leaf discs, 12 to 18 adults, 6 days after infestation, read-out: activity (mortality and special effects)
Method: Activity Against Bemisia tabaci (Cotton White Fly)
(Feeding/Residual Contact Activity, Preventive)
Cotton leaf discs were placed on agar in a 24-well microtiter plate and sprayed with test solutions. After drying, the leaf discs were infested with 12 to 18 adults. After an incubation period of 6 days after infestation, samples were checked for mortality and special effects (e.g. phytotoxicity).

melting point | SMILES | mortality at 200 ppm [1] | mortality at 200 ppm [2]
– | CCO/N=C1\CS(=O)(=O)N(C)c2ccc(-c3cnn(-c4cccnc4)c3)nc21 [Compound 8.003, N-ethoxy-2-hydroxy-1-methyl-2-oxo-6-[1-(3-pyridyl)pyrazol-4-yl]pyrido[3,2-c]thiazin-4-imine] | > 80% | > 80%
– | CO/N=C1\CCCc2sc(-c3cnn(-c4cccnc4)c3)nc21 [Compound 3.002, N-methoxy-2-[1-(3-pyridyl)pyrazol-4-yl]-6,7-dihydro-5H-1,3-benzothiazol-4-imine] | > 80% | –
– | O=C1CCCc2ccc(-c3cnn(-c4cccnc4)c3)nc21 [Compound 7.002, 2-(1-pyridin-3-yl-1H-pyrazol-4-yl)-6,7-dihydro-5H-quinolin-8-one] | – | > 80%
– | CN1Cc2ccc(-c3cnn(-c4cccnc4)c3)nc2C1=O [Compound 9.001] | > 80% | –
128 to 130 °C | CC(C)O/N=C1\CCCc2ccc(-c3cnn(-c4cccnc4)c3)nc21 (single isomer, unassigned) [Compound 1.005, 2-(1-pyridin-3-yl-1H-pyrazol-4-yl)-6,7-dihydro-5H-quinolin-8-one O-isopropyl-oxime] | – | –
> 300 °C | Cn1c(=O)c2c(nc(-c3cnn(-c4cccnc4)c3)n2C)n(C)c1=O [Compound 9.002] | – | –
– | CC(=O)N/N=C1\CCCc2ccc(-c3cnn(-c4cccnc4)c3)nc21 [Compound 6.007, acetic acid [2-(1-pyridin-3-yl-1H-pyrazol-4-yl)-6,7-dihydro-5H-quinolin-ylidene]-hydrazide] | > 80% | –
– | CC1CCc2ccc(-c3cnn(-c4cccnc4)c3)nc2C1=O (stereo not shown) [Compound 9.003] | > 80% | > 80%
– | CO/N=C1\CCOc2ccc(-c3cnn(-c4cccnc4)c3)nc21 [Compound 1.008, N-methoxy-6-[1-(3-pyridyl)pyrazol-4-yl]-2,3-dihydropyrano[3,2-b]pyridin-4-imine] | > 80% | > 80%
– | CON=C1c2nc(-c3cnn(-c4cccnc4)c3)ccc2N(C)S(=O)(=O)C1(C)C (single isomer, unassigned) [Compound 8.004, N-methoxy-1,3,3-trimethyl-2,2-dioxo-6-[1-(3-pyridyl)pyrazol-4-yl]pyrido[3,2-c]thiazin-4-imine] | > 80% | > 80%
– | O=C1CCOc2ccc(-c3cnn(-c4cccnc4)c3)nc21 [Compound 7.004, 6-[1-(3-pyridyl)pyrazol-4-yl]-2,3-dihydropyrano[3,2-b]pyridin-4-one] | > 80% | > 80%
